Results as given in patent publication US20250195530A1, “POLQ INHIBITORS” (ASTRAZENECA AB, priority 2022, published 2025).

How the values were obtained:
DLD-1 cells = test: Inhibition of proliferation, DLD-1 BRCA2 wt control (Cell Titre Glo 3D); format: cell-based; conditions: Homo sapiens, DLD-1, 168 h, DLD-1 BRCA2 wt cells, 7 days; read-out: POLQ PD Prolif Lumin DLD1 mean pIC50 (converted)
In short: (§1)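 Read-out: CellTiter-Glo 3D luminescence, day 7 for wt DLD-1, day 12 for BRCA2−/−, about 8-9 population doublings each. Seeding 1,500 or 3,000 cells/mL respectively. Dose range 10 μM–0.51 nM, 3-fold, 10 points, with re-dosing on day 6. IC50 from curve fit.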

DLD-1 BRCA2−/− cells = test: Homologous recombination synthetic lethal inhibition of proliferation, DLD-1 BRCA2-/- (Cell Titre Glo 3D); format: cell-based; conditions: Homo sapiens, DLD-1, 288 h, DLD-1 BRCA2−/− cells, 12 days; read-out: POLQ PD Prolif Lumin BRCA2 −/− mean pIC50 (converted)
In short: as §1

Row | Structure (SMILES) | IC50 (DLD-1 cells) [nM] | IC50 (DLD-1 BRCA2−/− cells) [nM]
1 | CC1(Oc2ncnc3c2nc(-c2ccc(OCCN4CCNCC4)cc2Cl)n3CCc2ccccc2)CC1 [Example J12, 8-(2-chloro-4-(2-(piperazin-1-yl)ethoxy)phenyl)-6-(1-methylcyclopropoxy)-9-phenethyl-9H-purine] | > 10000 | 501
2 | CC1(Oc2ncnc3c2nc(-c2ccc(OCCN4CCNCC4)cc2Cl)n3Cc2cccc(Cl)c2)CC1 [Example J13, 8-(2-chloro-4-(2-(piperazin-1-yl)ethoxy)phenyl)-9-(3-chlorobenzyl)-6-(1-methylcyclopropoxy)-9H-purine] | 3160 | 50.1
3 | CN1CCN(CCOc2ccc(-c3nc4c(OC5(C)CC5)ncnc4n3Cc3ccncc3)c(Cl)c2)CC1 [Example K1, 8-(2-chloro-4-(2-(4-methylpiperazin-1-yl)ethoxy)phenyl)-6-(1-methylcyclopropoxy)-9-(pyridin-4-ylmethyl)-9H-purine] | > 10000 | 1000
4 | CC1(Oc2ncnc3c2nc(-c2ccc(OCCN4CCNCC4)cc2Cl)n3Cc2cscn2)CC1 [Example K2, 4-((8-(2-chloro-4-(2-(piperazin-1-yl)ethoxy)phenyl)-6-(1-methylcyclopropoxy)-9H-purin-9-yl)methyl)thiazole] | 6310 | 2000
5 | CC1(Oc2ncnc3c2nc(-c2ccc(OCCN4CCNCC4)cc2Cl)n3Cc2ccc(Cl)cn2)CC1 [Example K3, 8-(2-chloro-4-(2-(piperazin-1-yl)ethoxy)phenyl)-9-((5-chloropyridin-2-yl)methyl)-6-(1-methylcyclopropoxy)-9H-purine] | > 10000 | 1260
6 | CC1(Oc2ncnc3c2nc(-c2ccc(OCCN4CCNCC4)cc2Cl)n3Cc2nccs2)CC1 [Example K4, 2-((8-(2-chloro-4-(2-(piperazin-1-yl)ethoxy)phenyl)-6-(1-methylcyclopropoxy)-9H-purin-9-yl)methyl)thiazole] | > 10000 | 3980
7 | CC1(Oc2ncnc3c2nc(-c2ccc(OCCN4CCNCC4)cc2Cl)n3Cc2ncccc2Cl)CC1 [Example K5, 8-(2-chloro-4-(2-(piperazin-1-yl)ethoxy)phenyl)-9-((3-chloropyridin-2-yl)methyl)-6-(1-methylcyclopropoxy)-9H-purine] | > 10000 | 2510
8 | Cc1nc(Cn2c(-c3ccc(OCCN4CCNCC4)cc3Cl)nc3c(OC4(C)CC4)ncnc32)cs1 [Example K6, 4-((8-(2-chloro-4-(2-(piperazin-1-yl)ethoxy)phenyl)-6-(1-methylcyclopropoxy)-9H-purin-9-yl)methyl)-2-methylthiazole] | > 10000 | 3980
9 | Cc1cccc(Cn2c(-c3ccc(OCCN4CCNCC4)cc3Cl)nc3c(OC4(C)CC4)ncnc32)n1 [Example K7, 8-(2-chloro-4-(2-(piperazin-1-yl)ethoxy)phenyl)-6-(1-methylcyclopropoxy)-9-((6-methylpyridin-2-yl)methyl)-9H-purine] | > 10000 | 1260
10 | CC1(Oc2ncnc3c2nc(-c2ccc(OCCN4CCNCC4)cc2Cl)n3Cc2cc(C(F)(F)F)ccn2)CC1 [Example K8, 8-(2-chloro-4-(2-(piperazin-1-yl)ethoxy)phenyl)-6-(1-methylcyclopropoxy)-9-((4-(trifluoromethyl)pyridin-2-yl)methyl)-9H-purine] | 7940 | 398
11 | CC1(Oc2ncnc3c2nc(-c2ccc(OCCN4CCNCC4)cc2Cl)n3Cc2cccc(C#N)n2)CC1 [Example K9, 6-((8-(2-chloro-4-(2-(piperazin-1-yl)ethoxy)phenyl)-6-(1-methylcyclopropoxy)-9H-purin-9-yl)methyl)picolinonitrile] | > 10000 | 1580
12 | COc1cccc(Cn2c(-c3ccc(OCCN4CCNCC4)cc3Cl)nc3c(OC4(C)CC4)ncnc32)n1 [Example K10, 8-(2-chloro-4-(2-(piperazin-1-yl)ethoxy)phenyl)-9-((6-methoxypyridin-2-yl)methyl)-6-(1-methylcyclopropoxy)-9H-purine] | > 10000 | 1580
13 | CC1(Oc2ncnc3c2nc(-c2ccc(OCCN4CCNCC4)cc2Cl)n3Cc2ncccc2C#N)CC1 [Example K11, 2-((8-(2-chloro-4-(2-(piperazin-1-yl)ethoxy)phenyl)-6-(1-methylcyclopropoxy)-9H-purin-9-yl)methyl)nicotinonitrile] | > 10000 | 2000
14 | Cc1scnc1Cn1c(-c2ccc(OCCN3CCNCC3)cc2Cl)nc2c(OC3(C)CC3)ncnc21 [Example K12, 4-((8-(2-chloro-4-(2-(piperazin-1-yl)ethoxy)phenyl)-6-(1-methylcyclopropoxy)-9H-purin-9-yl)methyl)-5-methylthiazole] | > 10000 | 1580
15 | Cc1ccnc(Cn2c(-c3ccc(OCCN4CCNCC4)cc3Cl)nc3c(OC4(C)CC4)ncnc32)c1 [Example L2, 8-(2-chloro-4-(2-(piperazin-1-yl)ethoxy)phenyl)-6-(1-methylcyclopropoxy)-9-((4-methylpyridin-2-yl)methyl)-9H-purine] | > 10000 | 398
16 | Cc1cnc(Cn2c(-c3ccc(OCCN4CCNCC4)cc3Cl)nc3c(OC4(C)CC4)ncnc32)s1 [Example L3, 2-((8-(2-chloro-4-(2-(piperazin-1-yl)ethoxy)phenyl)-6-(1-methylcyclopropoxy)-9H-purin-9-yl)methyl)-5-methylthiazole] | > 10000 | 398
17 | CC1(Oc2ncnc3c2nc(-c2ccc(OCCN4CCNCC4)cc2Cl)n3Cc2cc(C#N)ccn2)CC1 [Example L4, 2-((8-(2-chloro-4-(2-(piperazin-1-yl)ethoxy)phenyl)-6-(1-methylcyclopropoxy)-9H-purin-9-yl)methyl)isonicotinonitrile] | > 10000 | 1000
18 | COc1ccnc(Cn2c(-c3ccc(OCCN4CCNCC4)cc3Cl)nc3c(OC4(C)CC4)ncnc32)c1 [Example L5, 8-(2-chloro-4-(2-(piperazin-1-yl)ethoxy)phenyl)-9-((4-methoxypyridin-2-yl)methyl)-6-(1-methylcyclopropoxy)-9H-purine] | > 10000 | 1580
19 | CC1(Oc2ncnc3c2nc(-c2ccc(OCCN4CCNCC4)cc2Cl)n3Cc2ncc(Cl)s2)CC1 [Example L6, 5-chloro-2-((8-(2-chloro-4-(2-(piperazin-1-yl)ethoxy)phenyl)-6-(1-methylcyclopropoxy)-9H-purin-9-yl)methyl)thiazole] | > 10000 | 398
20 | CC1(Oc2ncnc3c2nc(-c2ccc(OCCN4CCNCC4)cc2Cl)n3Cc2csc(Cl)n2)CC1 [Example L7, 2-chloro-4-((8-(2-chloro-4-(2-(piperazin-1-yl)ethoxy)phenyl)-6-(1-methylcyclopropoxy)-9H-purin-9-yl)methyl)thiazole] | > 10000 | 1580
21 | Cc1ccc(Cn2c(-c3ccc(OCCN4CCNCC4)cc3Cl)nc3c(OC4(C)CC4)ncnc32)nc1 [Example L8, 8-(2-chloro-4-(2-(piperazin-1-yl)ethoxy)phenyl)-6-(1-methylcyclopropoxy)-9-((5-methylpyridin-2-yl)methyl)-9H-purine] | > 10000 | 2000
22 | Cc1cccnc1Cn1c(-c2ccc(OCCN3CCNCC3)cc2Cl)nc2c(OC3(C)CC3)ncnc21 [Example L9, 8-(2-chloro-4-(2-(piperazin-1-yl)ethoxy)phenyl)-6-(1-methylcyclopropoxy)-9-((3-methylpyridin-2-yl)methyl)-9H-purine] | > 10000 | 3160
23 | COc1cccnc1Cn1c(-c2ccc(OCCN3CCNCC3)cc2Cl)nc2c(OC3(C)CC3)ncnc21 [Example L10, 8-(2-chloro-4-(2-(piperazin-1-yl)ethoxy)phenyl)-9-((3-methoxypyridin-2-yl)methyl)-6-(1-methylcyclopropoxy)-9H-purine] | > 10000 | 3160
24 | CC1(Oc2ncnc3c2nc(-c2ccc(N4CC(N)C4)cc2Cl)n3Cc2ccccc2)CC1 [Example M1, 1-(4-(9-benzyl-6-(1-methylcyclopropoxy)-9H-purin-8-yl)-3-chlorophenyl)azetidin-3-amine] | > 10000 | 501
25 | CC1(Oc2ncnc3c2nc(-c2ccc(N4CCC(N)CC4)cc2Cl)n3Cc2ccccc2)CC1 [Example M2, 1-(4-(9-benzyl-6-(1-methylcyclopropoxy)-9H-purin-8-yl)-3-chlorophenyl)piperidin-4-amine] | 5010 | 316
26 | CC1(Oc2ncnc3c2nc(-c2ccc(N4CCNC(=O)C4)cc2Cl)n3Cc2ccccc2)CC1 [Example M3, 4-(4-(9-benzyl-6-(1-methylcyclopropoxy)-9H-purin-8-yl)-3-chlorophenyl)piperazin-2-one] | 7940 | 501
27 | CC1(Oc2ncnc3c2nc(-c2ccc(/C=C/C(=O)O)cc2Cl)n3Cc2ccccc2)CC1 [Example M4, (E)-3-(4-(9-benzyl-6-(1-methylcyclopropoxy)-9H-purin-8-yl)-3-chlorophenyl)acrylic acid] | > 10000 | 631
28 | CC1(Oc2ncnc3c2nc(-c2ccc(OCCN4CCNCC4=O)cc2Cl)n3Cc2ccccc2)CC1 [Example M5, 1-(2-(4-(9-benzyl-6-(1-methylcyclopropoxy)-9H-purin-8-yl)-3-chlorophenoxy)ethyl)piperazin-2-one] | > 10000 | 100
29 | CN(C)C(=O)c1ccc(-c2nc3c(OC4(C)CC4)ncnc3n2Cc2ccccc2)c(Cl)c1 [Example N1, 4-(9-benzyl-6-(1-methylcyclopropoxy)-9H-purin-8-yl)-3-chloro-N,N-dimethylbenzamide] | > 10000 | 200
30 | CNC(=O)c1ccc(-c2nc3c(OC4(C)CC4)ncnc3n2Cc2ccccc2)c(Cl)c1 [Example N2, 4-(9-benzyl-6-(1-methylcyclopropoxy)-9H-purin-8-yl)-3-chloro-N-methylbenzamide] | > 10000 | 251
